Experimental data published in paper PMC7473970, “Preformulation Studies of a Stable PTEN-PDZ Lipopeptide Able to Cross an In Vitro Blood-Brain-Barrier Model as a Potential Therapy for Alzheimer’s Disease” (Pharmaceutical Research, 2020).
Residues, ends and D or L forms follow the SMILES beside them.

How the values were obtained:
[1] = In vitro stability in 50% brain homogenate; format: in vitro ADME, mouse; conditions: 37°C, HPLC-UV 220 nm, one phase decay, least square fit, n = 3
Experimental: (§1) The samples were analyzed at 40°C on a Phenomenex Lichrosorb RP8 C8 column (4.0 mm × 250 mm, 5 μm), using the gradient elution method on an Agilent HPLC system (Agilent Technologies, Cheadle, UK) equipped with an 1100 series degasser, quaternary pump, autosampler, and column heater, and attached to an Agilent 1200 series PDA detector and a 1250 series fluorescent detector. The flow rate was set at 1.2 mL min^-1, and the injection volume was set at 40 μL, while detection was performed at 220 nm. The mobile phase was a mixture of mobile phase A (0.1% TFA in water) and phase B (0.08% TFA in acetonitrile), and in the first 5 min, the mobile phase was an 8:2 ratio of A:B (v/v) and from 5 to 15 min the percentage of B was raised from 8:2 to 1:9 (v/v). Linear calibration curves were constructed for both peptides between 0.1–100 μg.mL^−1. The retention time for the human Lau–PTEN-PDZ, mouse Lau–PTEN-PDZ, human Myr–PTEN-PDZ, and mouse Myr–PTEN-PDZ was 12.03, 11.60, 13.68, and 13.91, respectively.
(§2) The liver and brain of the mice were excised from […] CD-1 male mice (7 weeks-old: Charles River Laboratories) sacrificed with CO2, and the tissue was frozen immediately with liquid nitrogen prior to storage at −80°C. The liver and brain tissue were thawed and homogenized on ice in PBS (2 mL/g of tissue) using a glass 3 mL tissue homogenizer (20 strokes per sample), and the liver and brain homogenates were centrifuged (Heraeus Multifuge 3sf, Fisher Scientific, Basingstoke, UK) at 4300 g for 60 min at 4°C and at 3000 g for 20 min at 4°C, respectively. The supernatant was stored at −80°C, diluted 1:1 (v/v) with PBS (1x, pH 7.4), and used in stability studies. Peptides stocks (5 mM in DMSO) were prepared and maintained at −20°C prior to performing stability studies. These stock solutions (120 μL) were added to the diluted pre-warmed (37°C) liver or brain homogenate (50% v/v, 1080 μL) with agitation (100 rpm: Grant Aqua Waterbath), and samples (80 μL) were taken at 0, 5, 10, 15, 30, 45, 60, 90, 120, 180, 240, 360 and 1440 min, and diluted with ice-cold acetonitrile (80 μL). Samples were vortexed and left at −80°C at least overnight to allow for maximum protein precipitation, the samples were vortexed again for 15 min, centrifuged and the supernatant was analyzed by HPLC as described above.
(§3) The total protein concentration in the homogenates was determined using the Bradford protein assay ([7],[15]) and BSA as a standard. Ten stock solutions of BSA were prepared in PBS between 0.1–1 mg mL^−1, and 40 μL of each of the diluted stocks were added to 1.2 mL of Bradford reagent and incubated at room temperature for 5 min. The absorbance was recorded at 595 nm using a Multiskan GO spectrophotometer and the SkanIt software (Thermo Scientific, Paisley, UK). A linear calibration curve was obtained in this range that was used to extrapolate the protein content of 1:100 v/v stock solutions of 50% mouse plasma, liver, and brain homogenates diluted in PBS.

[2] = tested on: hCMEC/D3 cells; assay: MTT metabolic activity assay in hCMEC/D3 cells; format: cell-based, human; conditions: 24 h versus 4 h exposure
Experimental: HCMEC/D3 (passage number 32–40) cultured in EBM-2 (Lonza) supplemented with the EGM-2 Bullet Kit™ (Lonza), and 2% v/v human serum (Sigma H3667, Batch: SLBW2276) were used to assess the cytotoxicity of lipidized peptides. The cells were subjected to routine mycoplasma testing and authenticated in house. The cells were seeded at 46,875 cells/cm^2 in complete medium, and allowed to attach overnight, refreshing the medium to treat the cells with peptide solutions. The peptide solutions were prepared from […] DMSO stocks at a final concentration between 1 and 400 μM in complete medium to ensure a final DMSO concentration of 0.5%, and 200 μL of the diluted stock was added to each well. The metabolic activity of the cells was measured after 4 and 24 h using the MTT (3-(4,5)-dimethylthiazol-2-yl)-2,5-diphenyltetrazolium bromide) assay. At the time points specified, the MTT solution was added to each well (20 μL at 5 mg.mL^−1 in PBS), and the cells were incubated for 4 h at 37°C. Subsequently, DMSO (100 μL) was added to dissolve the formazan crystals, and the absorbance was measured at 570 and 690 nm on a Multiskan Go microplate spectrophotometer, analyzing the data using the SkanIt software (Thermo Scientific, Paisley, UK). […]
IC50 values were calculated using Graphpad Prism 8.0 (San Diego, USA) and fitted using a non-linear regression model ([Inhibitor] vs. response (three parameters)).

[3] = Permeability across in vitro 2D human blood-brain barrier model; format: in vitro ADME; conditions: read-out: Papp0-4h, Experiment 2
[4] = In vitro stability in 50% liver homogenate; format: in vitro ADME, mouse; conditions: 37°C, HPLC-UV 220 nm, one phase decay, least square fit, n = 3
Experimental: as §1, §2, §3

[5] = 50% w/v mouse brain homogenate in PBS pH 7.4
[6] = 50% w/v mouse liver homogenate in PBS pH 7.4

k ([1]; 50% w/v CD-1 mouse brain homogenate in PBS pH 7.4, 120 μL of 5 mM DMSO stock in 1080 μL, 100 rpm, 0-1440 min): 2.71 h⁻¹
t1/2 (h) [1, 5]: 0.25 h
t1/2 (min) [1, 5]: 15.32 min
Papp A→B at 100 μM [3]: 2.63 ± 0.08 ×10⁻⁶ cm/s
k ([4]; 50% w/v CD-1 mouse liver homogenate in PBS pH 7.4, 120 μL of 5 mM DMSO stock in 1080 μL, 100 rpm, 0-1440 min): 0.51 h⁻¹
t1/2 (h) [4, 6]: 1.36 h
t1/2 (min) [4, 6]: 81.66 min
Compound: CCCCCCCCCCCCCC(=O)N[C@@H](CCC(N)=O)C(=O)N[C@@H](Cc1c[nH]cn1)C(=O)N[C@@H](CO)C(=O)N[C@@H](CCC(N)=O)C(=O)N[C@H](C(=O)N[C@H](C(=O)N[C@@H](CCCCN)C(=O)N[C@H](C(=O)O)C(C)C)[C@@H](C)O)[C@@H](C)CC [Mouse Myr-PTEN-PDZ] (HELM PEPTIDE1{[CCCCCCCCCCCCCC(=O)[*:2]].Q.H.S.Q.I.T.K.V}$$$$V2.0)
Recovery of cell metabolic activity after 24 h [2]: did not allow the cells to recover after 24 h
